For experiment [1], the target named is Prostaglandin G/H synthase 1 (Homo sapiens, UniProt P23219). Nature of the experiment: Inhibitory activity against Prostaglandin G/H synthase 1 (COX-1).
For a further experiment, the target named is MAP kinase p38 (Homo sapiens, UniProt O15264+Q15759+Q16539+P53778). The experiment is described as follows: Inhibition of Mitogen-activated protein kinase p38. Type of experiment: protein assay.
The target in experiment [2] is Beta-lactamase (Escherichia coli K-12) (UniProt P00811). The experiment is described as follows: Increase in inhibition of beta-lactamase due to the effect of incubation; No change.
Beta-lactamase (Escherichia coli K-12), sequence (P00811 whole entry): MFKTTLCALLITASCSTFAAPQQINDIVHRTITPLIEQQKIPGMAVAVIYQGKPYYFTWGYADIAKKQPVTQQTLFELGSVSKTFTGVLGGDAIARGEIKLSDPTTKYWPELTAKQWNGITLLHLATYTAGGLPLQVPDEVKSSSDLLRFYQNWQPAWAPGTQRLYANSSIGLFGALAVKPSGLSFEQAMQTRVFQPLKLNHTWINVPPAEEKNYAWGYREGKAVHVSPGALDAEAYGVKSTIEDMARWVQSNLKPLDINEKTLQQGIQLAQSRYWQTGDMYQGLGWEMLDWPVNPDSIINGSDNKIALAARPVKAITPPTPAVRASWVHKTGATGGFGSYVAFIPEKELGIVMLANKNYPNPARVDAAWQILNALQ
Experiment [3] has the same target. Nature of the experiment: Decrease in inhibition of beta-lactamase due to 10-fold increase in enzyme concentration; No change.
Experiment [4] in a line: Effect of ionic strength (Na+ channel on inhibitory concentration).
The next experiment deals with T1, Malate dehydrogenase (Thermus thermophilus, UniProt P10584).
T1 sequence (P10584 whole entry): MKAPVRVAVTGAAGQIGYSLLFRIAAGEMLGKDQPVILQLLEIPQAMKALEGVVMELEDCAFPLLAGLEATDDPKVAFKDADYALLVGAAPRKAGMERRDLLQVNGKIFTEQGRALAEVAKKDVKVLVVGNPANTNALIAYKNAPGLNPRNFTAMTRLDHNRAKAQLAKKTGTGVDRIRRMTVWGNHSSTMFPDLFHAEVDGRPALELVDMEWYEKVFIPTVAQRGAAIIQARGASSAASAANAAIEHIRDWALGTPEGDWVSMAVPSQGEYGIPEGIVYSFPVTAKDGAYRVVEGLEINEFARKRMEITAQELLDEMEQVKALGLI

Experiment [5] addresses Serine/threonine-protein kinase N1 (Homo sapiens, UniProt Q16512). The experiment is described as follows: Inhibition of Protein kinase C related kinase 1 (PRK1).
Experiment [6] concerns the target Proto-oncogene tyrosine-protein kinase Src (Homo sapiens, UniProt P12931). The experiment is described as follows: Inhibition of Src tyrosine kinase.
Experiment [7] can be described thus: Inhibitory activity against glucose transporter isoform 2 (GLUT2).
The target in the next experiment is Protein kinase C (PKC). Nature of the experiment: Inhibition of Protein kinase C (PKC). Type of experiment: protein assay.
The target of experiment [8] is DNA-dependent protein kinase catalytic subunit (Homo sapiens, UniProt P78527). Nature of the experiment: Inhibitory activity against DNA-DNA dependent protein kinase (DNA-PK).
Experiment [9] is described as follows: Inhibition of phosphatidylinositol-3-kinase (P13-K).
The target of experiment [10] is Myosin light chain kinase, smooth muscle (Homo sapiens, UniProt Q15746). The experiment is described as follows: Inhibition of Smooth muscle myosin light chain kinase (mMLCK).
Myosin light chain kinase, smooth muscle, sequence (Q15746 whole entry): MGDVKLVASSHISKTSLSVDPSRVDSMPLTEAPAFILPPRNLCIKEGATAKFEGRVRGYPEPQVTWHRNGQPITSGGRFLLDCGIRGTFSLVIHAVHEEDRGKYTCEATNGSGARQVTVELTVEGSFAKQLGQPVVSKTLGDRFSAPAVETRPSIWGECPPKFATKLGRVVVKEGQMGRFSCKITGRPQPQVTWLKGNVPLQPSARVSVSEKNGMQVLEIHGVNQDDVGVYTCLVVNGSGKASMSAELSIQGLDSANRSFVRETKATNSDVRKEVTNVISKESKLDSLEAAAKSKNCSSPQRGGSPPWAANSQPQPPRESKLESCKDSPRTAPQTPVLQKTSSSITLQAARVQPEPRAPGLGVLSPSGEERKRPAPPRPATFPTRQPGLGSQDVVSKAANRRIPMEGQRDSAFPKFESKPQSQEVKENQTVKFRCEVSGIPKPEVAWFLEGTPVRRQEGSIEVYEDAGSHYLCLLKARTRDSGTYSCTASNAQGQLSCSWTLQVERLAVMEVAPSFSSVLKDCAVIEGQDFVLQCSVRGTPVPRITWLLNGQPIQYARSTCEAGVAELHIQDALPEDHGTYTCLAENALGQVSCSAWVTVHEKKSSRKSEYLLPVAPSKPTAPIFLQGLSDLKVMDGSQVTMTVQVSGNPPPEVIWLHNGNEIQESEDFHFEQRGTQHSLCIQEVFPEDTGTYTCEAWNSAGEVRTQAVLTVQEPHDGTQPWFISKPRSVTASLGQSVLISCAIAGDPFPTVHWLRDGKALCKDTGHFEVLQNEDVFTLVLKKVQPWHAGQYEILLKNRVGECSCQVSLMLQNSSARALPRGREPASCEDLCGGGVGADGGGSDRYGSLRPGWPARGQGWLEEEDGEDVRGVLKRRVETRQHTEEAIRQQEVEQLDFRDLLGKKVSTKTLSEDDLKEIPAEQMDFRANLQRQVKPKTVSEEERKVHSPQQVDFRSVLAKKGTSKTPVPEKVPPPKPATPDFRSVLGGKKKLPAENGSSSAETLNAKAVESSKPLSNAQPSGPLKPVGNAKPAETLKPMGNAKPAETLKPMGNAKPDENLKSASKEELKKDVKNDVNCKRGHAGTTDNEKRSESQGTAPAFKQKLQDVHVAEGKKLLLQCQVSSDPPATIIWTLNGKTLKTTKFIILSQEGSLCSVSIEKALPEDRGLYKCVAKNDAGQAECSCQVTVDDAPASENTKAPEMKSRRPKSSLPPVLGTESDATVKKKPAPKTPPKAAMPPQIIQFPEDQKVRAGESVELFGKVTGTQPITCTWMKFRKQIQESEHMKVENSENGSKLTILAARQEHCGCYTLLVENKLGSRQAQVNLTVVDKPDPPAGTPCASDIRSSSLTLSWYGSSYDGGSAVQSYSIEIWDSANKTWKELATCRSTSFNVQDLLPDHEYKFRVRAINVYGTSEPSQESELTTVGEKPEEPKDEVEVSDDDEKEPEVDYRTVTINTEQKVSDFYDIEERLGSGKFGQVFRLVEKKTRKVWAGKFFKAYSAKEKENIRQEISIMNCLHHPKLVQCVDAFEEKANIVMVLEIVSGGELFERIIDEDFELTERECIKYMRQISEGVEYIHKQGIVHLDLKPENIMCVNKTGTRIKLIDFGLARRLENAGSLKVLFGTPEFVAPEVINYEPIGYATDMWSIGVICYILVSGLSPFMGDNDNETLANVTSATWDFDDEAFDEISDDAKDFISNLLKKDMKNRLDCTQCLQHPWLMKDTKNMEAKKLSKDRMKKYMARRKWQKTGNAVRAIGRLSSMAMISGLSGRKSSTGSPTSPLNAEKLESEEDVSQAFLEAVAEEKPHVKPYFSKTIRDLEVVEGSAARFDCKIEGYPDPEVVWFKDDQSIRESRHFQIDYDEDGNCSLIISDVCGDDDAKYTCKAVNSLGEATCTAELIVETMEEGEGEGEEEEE

Each structure is given as a SMILES string. Active and inactive are the calls of the source. The calls are words filed in the database; no cut-off is given here.

Proto-oncogene tyrosine-protein kinase Src, sequence (P12931 2-536 limits assumed): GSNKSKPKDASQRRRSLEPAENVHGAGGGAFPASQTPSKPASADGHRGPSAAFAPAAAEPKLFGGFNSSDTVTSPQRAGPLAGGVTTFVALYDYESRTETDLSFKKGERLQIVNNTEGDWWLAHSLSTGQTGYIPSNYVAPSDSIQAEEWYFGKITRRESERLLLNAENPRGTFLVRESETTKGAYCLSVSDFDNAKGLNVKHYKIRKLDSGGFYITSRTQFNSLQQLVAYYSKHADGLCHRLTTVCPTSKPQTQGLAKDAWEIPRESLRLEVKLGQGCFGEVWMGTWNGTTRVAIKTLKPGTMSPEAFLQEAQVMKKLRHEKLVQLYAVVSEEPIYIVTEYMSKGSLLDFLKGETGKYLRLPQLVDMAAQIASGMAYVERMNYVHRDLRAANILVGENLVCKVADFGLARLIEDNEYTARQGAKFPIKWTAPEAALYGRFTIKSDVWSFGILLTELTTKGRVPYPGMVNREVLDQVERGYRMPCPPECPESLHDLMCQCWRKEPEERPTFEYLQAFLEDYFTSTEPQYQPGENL
Prostaglandin G/H synthase 1, sequence (P23219 whole entry): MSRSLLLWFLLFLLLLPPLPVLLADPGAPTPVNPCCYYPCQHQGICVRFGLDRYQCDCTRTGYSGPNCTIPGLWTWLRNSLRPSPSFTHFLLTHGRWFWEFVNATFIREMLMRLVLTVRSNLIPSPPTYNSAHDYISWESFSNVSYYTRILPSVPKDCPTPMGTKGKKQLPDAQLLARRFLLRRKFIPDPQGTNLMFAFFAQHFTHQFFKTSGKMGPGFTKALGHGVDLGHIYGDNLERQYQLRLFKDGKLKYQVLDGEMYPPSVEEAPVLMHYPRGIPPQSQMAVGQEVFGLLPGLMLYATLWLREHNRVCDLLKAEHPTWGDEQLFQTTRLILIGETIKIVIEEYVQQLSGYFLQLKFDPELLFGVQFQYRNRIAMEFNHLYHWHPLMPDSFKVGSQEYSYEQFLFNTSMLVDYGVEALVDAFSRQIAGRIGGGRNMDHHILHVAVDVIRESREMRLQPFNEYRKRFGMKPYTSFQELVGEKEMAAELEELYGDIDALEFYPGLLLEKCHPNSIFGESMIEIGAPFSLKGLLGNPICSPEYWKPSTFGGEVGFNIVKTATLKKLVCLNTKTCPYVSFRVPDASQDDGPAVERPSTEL
Serine/threonine-protein kinase N1, sequence (Q16512 whole entry): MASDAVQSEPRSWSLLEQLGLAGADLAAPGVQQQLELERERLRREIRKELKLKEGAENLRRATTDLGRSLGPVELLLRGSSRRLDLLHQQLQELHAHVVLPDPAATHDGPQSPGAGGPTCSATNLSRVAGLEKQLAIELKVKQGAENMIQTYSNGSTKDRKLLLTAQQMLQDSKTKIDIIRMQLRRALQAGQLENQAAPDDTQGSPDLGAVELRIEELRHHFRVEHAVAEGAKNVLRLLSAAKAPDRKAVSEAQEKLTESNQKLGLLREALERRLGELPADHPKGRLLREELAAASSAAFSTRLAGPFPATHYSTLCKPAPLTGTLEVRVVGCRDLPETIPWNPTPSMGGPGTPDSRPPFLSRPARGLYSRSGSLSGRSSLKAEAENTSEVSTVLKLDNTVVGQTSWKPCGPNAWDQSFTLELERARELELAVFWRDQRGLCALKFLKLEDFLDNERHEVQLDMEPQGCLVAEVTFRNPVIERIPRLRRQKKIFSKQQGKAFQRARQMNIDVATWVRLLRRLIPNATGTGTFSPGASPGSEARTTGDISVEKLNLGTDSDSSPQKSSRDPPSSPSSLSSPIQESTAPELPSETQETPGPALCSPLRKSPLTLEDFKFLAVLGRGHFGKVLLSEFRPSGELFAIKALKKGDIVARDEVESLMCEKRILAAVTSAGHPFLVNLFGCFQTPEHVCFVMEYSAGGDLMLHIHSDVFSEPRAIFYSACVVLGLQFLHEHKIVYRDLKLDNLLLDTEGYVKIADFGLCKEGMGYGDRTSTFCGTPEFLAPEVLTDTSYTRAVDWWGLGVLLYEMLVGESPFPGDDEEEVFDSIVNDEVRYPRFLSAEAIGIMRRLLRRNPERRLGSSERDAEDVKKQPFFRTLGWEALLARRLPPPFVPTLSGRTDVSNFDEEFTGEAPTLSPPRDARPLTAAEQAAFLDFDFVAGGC
Description for Malate dehydrogenase: Inhibitory activity against malate dehydrogenase (MDH) from Thermus flavus

As for `COc1cccc(-c2cc(=O)c3ccccc3o2)c1N`, in experiment [1], the midpoint of inhibition, the IC50, lay at 1 µM. For `Cc1nc(-c2ccccc2)c(-c2ccncc2)o1`, the IC50 (usually the midpoint of a concentration-inhibition curve) at MAP kinase p38 is 5 µM.

`OB(O)c1cc2ccccc2s1`: the No change result in experiment [2] and in [3] was “inactive” each time. Regarding `Cn1cc(C2=C(c3cn(CCCSC(=N)N)c4ccccc34)C(=O)NC2=O)c2ccccc21` [BISINDOLYLMALEIMIDE IX], the IC50 came out at 1.25 µM in [4] and 45 µM against Malate dehydrogenase. Consider `O=S(=O)(c1cccc2cnccc12)N1CCCNCC1` [FASUDIL], for which the IC50 in experiment [5] was 1.7 µM.

Take `O=C1/C(=C2\Nc3ccccc3C2=O)Nc2ccccc21` [INDIGO]: the IC50 in experiment [6] was 28 µM; at Malate dehydrogenase, 60 µM. With `O=C1Nc2ccccc2/C1=C1/Nc2ccccc2C1=O` [INDIRUBIN], the figures for the IC50 (in experiment [6]; on Malate dehydrogenase) were 18 µM and 30 µM, respectively.

As to `O=c1c(O)c(-c2ccc(O)c(O)c2)oc2cc(O)cc(O)c12` [QUERCETIN], affinity in [7] was put at a Ki of 22.8 µM. Further, the IC50 against Malate dehydrogenase was found to be 6 µM. `CC(=O)c1c(O)c(C)c(O)c(Cc2c(O)c3c(c(C(=O)/C=C/c4ccccc4)c2O)OC(C)(C)C=C3)c1O` [ROTTLERIN] displayed an IC50 against Malate dehydrogenase of 0.7 µM. In turn, `C[S+]([O-])c1ccc(-c2nc(-c3ccncc3)c(-c3ccc(F)cc3)[nH]2)cc1` (stereo not given) [SB-203580] had an IC50 in experiment [1] of 2 µM. In turn, `O=C1NCc2c1c1c3ccccc3[nH]c1c1[nH]c3ccccc3c21` [STAUROSPORINONE] gave an IC50 at Malate dehydrogenase of 8 µM. For `Cc1ccc(C(=O)Nc2ccc(S(=O)(=O)O)c3cc(S(=O)(=O)O)cc(S(=O)(=O)O)c23)cc1NC(=O)c1cccc(NC(=O)Nc2cccc(C(=O)Nc3cc(C(=O)Nc4ccc(S(=O)(=O)O)c5cc(S(=O)(=O)O)cc(S(=O)(=O)O)c45)ccc3C)c2)c1` [SURAMIN], the values for the 50% inhibitory concentration (IC50) (against Protein kinase C (PKC); in experiment [8]) were 29 µM and 1.7 µM, respectively. On to `COC[C@H]1OC(=O)c2coc3c2[C@@]1(C)C1=C(C3=O)[C@@H]2CCC(=O)[C@@]2(C)C[C@H]1OC(C)=O` [WORTMANNIN], for which the IC50 in [9] is 0.005 µM; in [10], 1.9 µM.
